Reference: patent publication US20050107475A1, “Methods of using farnesoid x receptor (frx) agonists” (priority 2002, published 2005)

Key:
[1] = tested on: human Fibroblast Growth Factor 19 (hFGF19); assay: Differential expression of FGF19 in human hepatocytes treated with FXR agonists (transcript profiling); assay type: cell-based; settings: vs DMSO control
Procedure: The present study utilized differential gene expression analysis as performed by CuraGen Corporation (New Haven, Conn.) using transcript profiling technology. […] In brief, RNA is extracted from samples and cDNA synthesis is carried out. The cDNAs are then digested with multiple pairs of different restriction enzymes (standard set of 96 different pairs of restriction enzymes with 6 base-pair recognition sites (subsequence pairs)), and the digested products are ligated to complementary adapters containing standardized PCR priming sequences. Multiple PCR cycles are carried out using one biotinylated adapter-specific primer and one fluorescently labeled adapter-specific primer. Following PCR amplification, the biotin-labeled DNA is purified on immobilized streptavidin. Denatured single stranded cDNA fragments are then sized using capillary electrophoresis, and the fluorescently labeled fragments are detected by laser excitation. Since the biotin label is needed for purification and the fluorescent label is needed for detection, all analyzed fragments result from restriction digestion with both enzymes.
Differentially expressed peaks are identified by comparing the composite traces of the experimental samples vs. the control samples using bioinformatics algorithms. […]

primary rat adipocytes [2] = settings: added to cultures of primary rat adipocytes; cited from earlier work
primary rat adipocytes [3] = settings: added to cultures of primary rat adipocytes; cited from earlier work; remark: listed apart in the source
FvB mice = settings: 1 mg/kg/day, intravenously by osmotically driven implanted pump, vs carrier alone; cited from earlier work

Compound	Increase in expression of hFGF19 compared to control cells [1] [fold]	release of leptin from the cells (primary rat adipocytes [2])	uptake of glucose (primary rat adipocytes [3])	food intake (FvB mice)	oxygen consumption (FvB mice)
CC(C)c1onc(-c2c(Cl)cccc2Cl)c1COc1ccc(/C=C/c2cccc(C(=O)O)c2)c(Cl)c1 [GW4064X]	36.4	–	–	–	–
recombinant human FGF-19: recombinant human fibroblast growth factor 19 protein	–	increase the release of leptin	decrease the uptake of glucose	increased food intake	increased oxygen consumption
